# Data published in ChEMBL document CHEMBL5678804 (Cancer Cell, 2011).
# Activity calls are given as the source filed them. The rule behind the calls is not given here.
# Columns and labels:
# [1] = biological target: Lymphokine-activated killer T-cell-originated protein kinase (Homo sapiens, UniProt Q96KB5); experiment: Inhibition of human wild type PBK using Histon H1 as substrate preincubated for 2 hrs followed by ATP addition and measured every 2 mins for […] by spectrophotometric analysis
# [2] = biological target: Tyrosine-protein kinase JAK3 (Homo sapiens, UniProt P52333); experiment: Inhibition of human wild type JAK3 using Poly(Ala,Glu,Lys,Tyr)6:2:5:1 as substrate preincubated for 2 hrs followed by ATP addition and measured every 2 mins for […] by spectrophotometric analysis
# CDK1/Cyclin A = CDK1/Cyclin A (Homo sapiens, UniProt P06493); experiment: Inhibition of human wild type CDK1/cyclinA using RBER-CHKtide as substrate preincubated for 2 hrs followed by ATP addition and measured every 2 mins for […] by spectrophotometric analysis; assay type: protein-complex assay
# CDK1/Cyclin A, sequence (P06493 whole entry): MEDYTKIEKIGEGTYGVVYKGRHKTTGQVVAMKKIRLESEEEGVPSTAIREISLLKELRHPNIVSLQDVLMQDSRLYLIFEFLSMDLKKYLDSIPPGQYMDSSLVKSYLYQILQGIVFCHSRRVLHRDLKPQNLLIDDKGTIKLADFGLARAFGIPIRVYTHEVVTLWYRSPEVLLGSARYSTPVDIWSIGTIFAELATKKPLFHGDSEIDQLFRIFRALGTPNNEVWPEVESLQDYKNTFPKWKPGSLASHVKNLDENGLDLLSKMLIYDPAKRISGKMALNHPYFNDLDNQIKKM
# CDK1/Cyclin A, sequence (P20248 whole entry, further chain): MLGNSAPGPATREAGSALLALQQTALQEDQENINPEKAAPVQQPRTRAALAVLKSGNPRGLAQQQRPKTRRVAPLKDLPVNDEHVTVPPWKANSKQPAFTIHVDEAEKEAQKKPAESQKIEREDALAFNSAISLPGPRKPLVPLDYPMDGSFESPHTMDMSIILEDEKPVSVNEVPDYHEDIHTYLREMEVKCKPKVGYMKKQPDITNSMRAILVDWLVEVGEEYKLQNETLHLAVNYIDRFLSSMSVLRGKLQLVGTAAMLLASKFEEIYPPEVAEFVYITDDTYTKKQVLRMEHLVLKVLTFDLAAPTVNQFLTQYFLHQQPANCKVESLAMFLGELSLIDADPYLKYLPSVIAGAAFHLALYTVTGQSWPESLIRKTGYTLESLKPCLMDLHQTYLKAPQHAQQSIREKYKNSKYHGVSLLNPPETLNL
# [3] = biological target: Dual specificity tyrosine-phosphorylation-regulated kinase 3 (Homo sapiens, UniProt O43781); experiment: Inhibition of human wild type DYRK3 using RBER-IRStide as substrate preincubated for 2 hrs followed by ATP addition and measured every 2 mins for […] by spectrophotometric analysis
# [4] = biological target: Tyrosine-protein kinase ABL1 (Homo sapiens, UniProt P00519); details: Sf9, time 2.0 hrs
# [5] = biological target: MAP kinase-interacting serine/threonine-protein kinase 2 (Homo sapiens, UniProt Q9HBH9); experiment: Inhibition of human wild type MNK2 using RB-S6P as substrate preincubated for 2 hrs followed by ATP addition and measured every 2 mins for […] by spectrophotometric analysis
# [6] = biological target: Serine/threonine-protein kinase MRCK alpha (Homo sapiens, UniProt Q5VT25); experiment: Inhibition of human wild type MRCK alpha using RB-S6P as substrate preincubated for 2 hrs followed by ATP addition and measured every 2 mins for […] by spectrophotometric analysis
# Ephrin type-A receptor 6 = Ephrin type-A receptor 6 (Homo sapiens, UniProt Q9UF33); experiment: Inhibition of human wild type EPHA6 using PolyEY as substrate preincubated for 2 hrs followed by ATP addition and measured every 2 mins for […] by spectrophotometric analysis
# Ephrin type-A receptor 6, sequence (Q9UF33 whole entry): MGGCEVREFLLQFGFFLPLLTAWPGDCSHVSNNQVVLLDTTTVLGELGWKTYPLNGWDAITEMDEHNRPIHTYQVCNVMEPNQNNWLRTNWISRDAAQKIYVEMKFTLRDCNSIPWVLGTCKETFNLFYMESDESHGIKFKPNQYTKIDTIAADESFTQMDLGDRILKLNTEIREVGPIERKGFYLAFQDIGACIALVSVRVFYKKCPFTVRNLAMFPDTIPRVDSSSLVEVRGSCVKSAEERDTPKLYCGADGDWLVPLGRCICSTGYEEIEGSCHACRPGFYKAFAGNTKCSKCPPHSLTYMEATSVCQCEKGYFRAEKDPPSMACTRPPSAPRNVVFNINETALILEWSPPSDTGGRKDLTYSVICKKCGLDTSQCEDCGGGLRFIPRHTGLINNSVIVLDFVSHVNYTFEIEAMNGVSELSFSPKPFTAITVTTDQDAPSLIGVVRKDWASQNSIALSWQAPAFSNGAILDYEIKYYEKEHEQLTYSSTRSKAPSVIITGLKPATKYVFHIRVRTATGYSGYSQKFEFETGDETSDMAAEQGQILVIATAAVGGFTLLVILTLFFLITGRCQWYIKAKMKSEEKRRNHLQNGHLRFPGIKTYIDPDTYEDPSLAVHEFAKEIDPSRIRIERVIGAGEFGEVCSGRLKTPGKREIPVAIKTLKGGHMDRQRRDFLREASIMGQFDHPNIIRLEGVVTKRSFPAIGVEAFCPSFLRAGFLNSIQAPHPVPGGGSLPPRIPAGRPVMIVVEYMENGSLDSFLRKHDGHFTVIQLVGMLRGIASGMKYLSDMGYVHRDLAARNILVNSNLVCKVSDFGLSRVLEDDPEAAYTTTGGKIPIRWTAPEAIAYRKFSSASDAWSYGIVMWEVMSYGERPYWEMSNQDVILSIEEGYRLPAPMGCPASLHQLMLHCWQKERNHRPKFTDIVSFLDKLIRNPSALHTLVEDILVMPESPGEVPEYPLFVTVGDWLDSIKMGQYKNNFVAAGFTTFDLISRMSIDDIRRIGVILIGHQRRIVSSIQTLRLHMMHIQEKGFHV
# [7] = biological target: Mitogen-activated protein kinase 13 (Homo sapiens, UniProt O15264); experiment: Inhibition of human wild type p38 delta using RBER-CHKtide as substrate preincubated for 2 hrs followed by ATP addition and measured every 2 mins for […] by spectrophotometric analysis
# Mitogen-activated protein kinase 13, sequence (O15264 whole entry): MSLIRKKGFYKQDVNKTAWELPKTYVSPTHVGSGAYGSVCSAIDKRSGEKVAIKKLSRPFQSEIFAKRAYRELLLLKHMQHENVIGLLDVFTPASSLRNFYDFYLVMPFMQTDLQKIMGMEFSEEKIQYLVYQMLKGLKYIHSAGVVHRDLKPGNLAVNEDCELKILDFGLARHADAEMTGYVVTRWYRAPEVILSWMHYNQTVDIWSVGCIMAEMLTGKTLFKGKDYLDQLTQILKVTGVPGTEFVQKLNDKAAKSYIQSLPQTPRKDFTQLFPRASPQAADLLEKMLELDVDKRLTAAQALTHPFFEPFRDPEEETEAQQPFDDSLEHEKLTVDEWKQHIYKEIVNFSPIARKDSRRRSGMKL
# [8] = biological target: Serine/threonine-protein kinase ULK1 (Homo sapiens, UniProt O75385); experiment: Inhibition of human wild type ULK1 using Casein as substrate preincubated for 2 hrs followed by ATP addition and measured every 2 mins for […] by spectrophotometric analysis
# [9] = tested on: Tyrosine-protein kinase ABL1 (Homo sapiens), P00519 [T315I]; details: time 2.0 hrs
# [10] = biological target: Dual specificity protein kinase TTK (Homo sapiens, UniProt P33981); experiment: Inhibition of human wild type TTK using RBER-CHKtide as substrate preincubated for 2 hrs followed by ATP addition and measured every 2 mins for […] by spectrophotometric analysis
# BaF3 [11] = experiment: Antitumor activity against mouse BaF3 cells harbouring BCR-ABL1 T315I mutant xenografted in Balb/c mouse model assessed as reduction in leukemia cell burden in spleen at 100 mg/kg, po administered twice daily; assay type: functional, organism-based
# [12] = biological target: Mitogen-activated protein kinase kinase kinase kinase 2 (Homo sapiens, UniProt Q12851); experiment: Inhibition of human wild type GCK using Chocktide-PKC(19t o 31) as substrate preincubated for 2 hrs followed by ATP addition and measured every 2 mins for […] by spectrophotometric analysis
# [13] = biological target: Serine/threonine-protein kinase VRK1 (Homo sapiens, UniProt Q99986); experiment: Inhibition of human wild type VRK1 using RBER-CHKtide as substrate preincubated for 2 hrs followed by ATP addition and measured every 2 mins for […] by spectrophotometric analysis
# Serine/threonine-protein kinase VRK1, sequence (Q99986 whole entry): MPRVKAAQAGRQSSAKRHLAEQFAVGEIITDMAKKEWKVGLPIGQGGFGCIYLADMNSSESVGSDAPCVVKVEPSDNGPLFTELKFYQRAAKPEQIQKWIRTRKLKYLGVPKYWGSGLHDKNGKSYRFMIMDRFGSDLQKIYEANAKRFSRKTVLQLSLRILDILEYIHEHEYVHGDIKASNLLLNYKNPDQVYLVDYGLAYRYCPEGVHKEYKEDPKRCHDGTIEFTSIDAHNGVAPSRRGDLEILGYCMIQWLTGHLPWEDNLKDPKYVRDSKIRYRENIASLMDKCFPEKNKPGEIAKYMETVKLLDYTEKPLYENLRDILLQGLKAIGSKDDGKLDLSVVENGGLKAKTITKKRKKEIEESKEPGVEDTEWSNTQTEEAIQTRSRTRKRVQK
# [14] = biological target: Megakaryocyte-associated tyrosine-protein kinase (Homo sapiens, UniProt P42679); experiment: Inhibition of human wild type CTK using PolyEY as substrate preincubated for 2 hrs followed by ATP addition and measured every 2 mins for […] by spectrophotometric analysis
# [15] = biological target: Crk-like protein (Homo sapiens) (UniProt P46109); experiment: Inhibition of CrkL phosphorylation in Ph+ B-ALL patient with […] mutation derived human Leukemia cell at 50 to 1000 nM by immunoblot analysis; assay type: cell-based; details: dose 50-1000 nM
# Crk-like protein (Homo sapiens), sequence (P46109 whole entry): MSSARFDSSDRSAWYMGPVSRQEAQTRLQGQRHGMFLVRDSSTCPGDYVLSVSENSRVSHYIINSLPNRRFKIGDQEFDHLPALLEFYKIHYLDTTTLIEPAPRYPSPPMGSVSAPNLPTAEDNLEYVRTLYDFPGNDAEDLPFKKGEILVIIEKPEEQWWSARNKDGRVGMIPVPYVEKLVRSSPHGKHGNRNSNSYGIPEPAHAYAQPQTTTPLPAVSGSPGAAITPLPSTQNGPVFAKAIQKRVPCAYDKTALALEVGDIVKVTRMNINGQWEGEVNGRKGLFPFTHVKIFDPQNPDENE
# Leukemia cell = experiment: Cytotoxicity against human Leukemia cell assessed as reduction in cell viability measured after 72 hrs by MTT assay; assay type: functional, cell-based
# [16] = biological target: Receptor tyrosine-protein kinase erbB-2 (Homo sapiens, UniProt P04626); experiment: Inhibition of human wild type HER2 using PolyEY as substrate preincubated for 2 hrs followed by ATP addition and measured every 2 mins for […] by spectrophotometric analysis
# BaF3 [17] = experiment: cells; details: Mus musculus, BaF3, 72 h
# Misshapen-like kinase 1 = Misshapen-like kinase 1 (Homo sapiens, UniProt Q8N4C8); experiment: Inhibition of human wild type MINK using RBER-CHKtide as substrate preincubated for 2 hrs followed by ATP addition and measured every 2 mins for […] by spectrophotometric analysis
# [18] = biological target: Tyrosine-protein kinase CSK (Homo sapiens, UniProt P41240); experiment: Inhibition of human wild type CSK using PolyEY as substrate preincubated for 2 hrs followed by ATP addition and measured every 2 mins for […] by spectrophotometric analysis
# Tyrosine-protein kinase CSK, sequence (P41240 whole entry): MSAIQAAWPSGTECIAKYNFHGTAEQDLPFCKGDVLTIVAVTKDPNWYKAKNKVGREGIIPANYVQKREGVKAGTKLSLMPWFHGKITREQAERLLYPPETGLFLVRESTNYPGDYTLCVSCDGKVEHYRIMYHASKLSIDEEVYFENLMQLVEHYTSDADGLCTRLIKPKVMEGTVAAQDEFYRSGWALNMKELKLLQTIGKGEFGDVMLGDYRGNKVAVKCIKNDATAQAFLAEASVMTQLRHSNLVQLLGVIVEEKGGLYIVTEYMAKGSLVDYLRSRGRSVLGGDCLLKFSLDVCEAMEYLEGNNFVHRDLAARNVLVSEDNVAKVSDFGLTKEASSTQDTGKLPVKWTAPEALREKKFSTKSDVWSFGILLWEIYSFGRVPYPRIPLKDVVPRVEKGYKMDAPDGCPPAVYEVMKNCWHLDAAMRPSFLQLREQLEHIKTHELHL
# Wee1-like protein kinase = Wee1-like protein kinase (Homo sapiens, UniProt P30291); experiment: Inhibition of human wild type WEE1 using Poly(Ala,Glu,Lys,Tyr)6:2:5:1 as substrate preincubated for 2 hrs followed by ATP addition and measured every 2 mins for […] by spectrophotometric analysis
# [19] = biological target: Cyclin-dependent kinase 1 (Homo sapiens, UniProt P06493); experiment: Inhibition of human wild type CDK1 using PolyEY as substrate preincubated for 2 hrs followed by ATP addition and measured every 2 mins for […] by spectrophotometric analysis
# Cyclin-dependent kinase 1, sequence (P06493 whole entry): as the sequence (P06493 whole entry) above
# [20] = biological target: Serine/threonine-protein kinase STK11 (Homo sapiens, UniProt Q15831); experiment: Inhibition of human wild type LKB1 using RB-CTF as substrate preincubated for 2 hrs followed by ATP addition and measured every 2 mins for […] by spectrophotometric analysis
# Serine/threonine-protein kinase STK11, sequence (Q15831 whole entry, the tested form may be a part): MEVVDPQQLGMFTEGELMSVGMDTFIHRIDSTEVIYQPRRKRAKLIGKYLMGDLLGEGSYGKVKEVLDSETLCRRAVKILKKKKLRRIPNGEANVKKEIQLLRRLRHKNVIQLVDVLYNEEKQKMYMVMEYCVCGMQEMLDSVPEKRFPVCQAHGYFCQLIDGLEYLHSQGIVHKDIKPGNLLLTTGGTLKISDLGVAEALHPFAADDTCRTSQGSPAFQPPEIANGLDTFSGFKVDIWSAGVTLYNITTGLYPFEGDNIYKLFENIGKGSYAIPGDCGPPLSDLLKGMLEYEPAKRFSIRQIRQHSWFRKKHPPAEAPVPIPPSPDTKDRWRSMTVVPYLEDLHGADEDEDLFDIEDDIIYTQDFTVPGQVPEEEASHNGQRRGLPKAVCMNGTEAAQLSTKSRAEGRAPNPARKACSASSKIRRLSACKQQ
# LIM domain kinase 1 = LIM domain kinase 1 (Homo sapiens, UniProt P53667); experiment: Inhibition of human wild type LIMK1 using CFL2 as substrate preincubated for 2 hrs followed by ATP addition and measured every 2 mins for […] by spectrophotometric analysis
# [21] = biological target: Muscle, skeletal receptor tyrosine-protein kinase (Homo sapiens, UniProt O15146); experiment: Inhibition of human wild type MUSK using Poly(Ala,Glu,Lys,Tyr)6:2:5:1 as substrate preincubated for 2 hrs followed by ATP addition and measured every 2 mins for […] by spectrophotometric analysis
# CDK3/Cyclin E = CDK3/Cyclin E (Homo sapiens, UniProt Q00526); experiment: Inhibition of human wild type CDK3/cyclinE using RBER-CHKtide as substrate preincubated for 2 hrs followed by ATP addition and measured every 2 mins for […] by spectrophotometric analysis; assay type: protein-complex assay
# [22] = biological target: Serine/threonine-protein kinase Chk1 (Homo sapiens, UniProt O14757); experiment: Inhibition of human wild type CHK1 using RBER-CHKtide as substrate preincubated for 2 hrs followed by ATP addition and measured every 2 mins for […] by spectrophotometric analysis
# Serine/threonine-protein kinase Chk1, sequence (O14757 whole entry): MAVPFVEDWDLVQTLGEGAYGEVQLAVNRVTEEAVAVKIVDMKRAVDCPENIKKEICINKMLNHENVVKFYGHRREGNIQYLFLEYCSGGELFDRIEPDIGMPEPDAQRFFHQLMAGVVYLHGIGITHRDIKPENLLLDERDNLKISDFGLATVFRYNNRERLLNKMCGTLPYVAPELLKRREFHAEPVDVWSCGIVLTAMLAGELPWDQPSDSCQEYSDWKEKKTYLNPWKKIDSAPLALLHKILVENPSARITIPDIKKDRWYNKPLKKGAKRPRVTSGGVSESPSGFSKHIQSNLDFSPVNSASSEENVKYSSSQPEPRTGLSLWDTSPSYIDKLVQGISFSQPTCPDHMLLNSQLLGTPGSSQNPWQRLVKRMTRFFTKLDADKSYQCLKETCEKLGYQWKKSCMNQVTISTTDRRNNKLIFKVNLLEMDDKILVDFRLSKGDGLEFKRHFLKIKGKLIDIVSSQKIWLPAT
# Lymphokine-activated killer T-cell-originated protein kinase, sequence (Q96KB5 whole entry): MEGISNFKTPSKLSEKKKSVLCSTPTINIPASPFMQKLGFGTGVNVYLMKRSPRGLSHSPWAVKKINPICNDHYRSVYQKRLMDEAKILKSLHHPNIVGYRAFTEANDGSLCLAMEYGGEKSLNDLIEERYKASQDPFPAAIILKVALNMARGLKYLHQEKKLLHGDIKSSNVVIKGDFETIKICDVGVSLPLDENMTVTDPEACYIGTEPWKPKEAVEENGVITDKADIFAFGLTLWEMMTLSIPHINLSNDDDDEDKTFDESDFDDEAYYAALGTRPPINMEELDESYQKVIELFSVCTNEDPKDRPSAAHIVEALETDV
smiles,measurement,setting,value
CNC(=O)c1cc(Oc2ccc(NC(=O)Nc3cc(C(C)(C)C)nn3-c3ccc4ncccc4c3)c(F)c2)ccn1 [REBASTINIB],IC50,[1],> 1 µM
same,IC50,[2],> 1 µM
same,IC50,CDK1/Cyclin A,> 1 µM
same,IC50,[3],0.71 µM
same,T1/2,[4],6.53 h
same,IC50,[5],0.4 µM
same,IC50,[6],> 1 µM
same,IC50,Ephrin type-A receptor 6,0.017 µM
same,IC50,[7],> 1 µM
same,IC50,[8],> 1 µM
same,Kdiss,[9],1.67e-05 s⁻¹
same,IC50,[10],0.29 µM
same,Activity,BaF3 [11],Active
same,IC50,[12],0.23 µM
same,IC50,[13],> 1 µM
same,IC50,[14],> 1 µM
same,inhibition,[15],Active
same,Activity,Leukemia cell,Active
same,IC50,[16],> 1 µM
same,IC50,BaF3 [17],0.006 µM
same,IC50,Misshapen-like kinase 1,0.011 µM
same,IC50,[18],0.025 µM
same,IC50,Wee1-like protein kinase,> 1 µM
same,IC50,[19],0.29 µM
same,IC50,[20],> 1 µM
same,IC50,LIM domain kinase 1,0.061 µM
same,IC50,[21],> 1 µM
same,IC50,CDK3/Cyclin E,> 1 µM
same,IC50,[22],> 1 µM
